{"source": "patent US20240376149A1", "about": "“Novel Modulators of GABABR1a” (VIB VZW, priority 2021, published 2024)", "key": {"[1]": {"biological_target": "T1, sushi domain 1 (SD1) of GABABR1a (Homo sapiens, UniProt Q9UBS5)", "T1 construct": "The synthetic gene encoding for residues 26-96 of the Sushi1 protein was cloned into a pFloat-SUMO vector; His-SUMO (with 3C protease site) (N, cleaved yes); made in house; host or cells: E. coli BL21(DE3)", "experiment": "Isothermal titration calorimetry (ITC) direct binding assay", "settings": "for ITC Kd: peptide titrated into Sushi-1 protein in PBS", "text": "In contrast to the FP assay, the isothermal titration calorimetry (ITC) assay is a direct binding assay.\nFor biophysical and structural biology purposes the Sushi1 protein was expressed in a bacterial expression system. The synthetic gene encoding for residues 26-96 of the Sushi1 protein was cloned into a pFloat-SUMO vector, generating a His-tagged SUMO-Sushi1 fusion protein. The construct also contained a 3C protease cleavage site to remove the His-SUMO-tag. The pFloat-SUMO-Sushi1 plasmid was transformed in BL21(DE3) cells and plated on kanamycin ([…]) containing LB agar plates. A small LB culture, supplemented with […] kanamycin, was inoculated with a single colony of BL21(DE3)(pFloat-SUMO-Sushi1) and grown overnight at 37° C. 1 liter LB cultures were subsequently inoculated with 20 ml of this preculture and grown at 37° C. until OD600 reached 0.8. At this point protein expression was induced using 0.5 mM isopropyl β-D-1-thiogalactopyranoside (IPTG). Cells were incubated further overnight at 20° C. and subsequently harvested by centrifugation (Beckman rotor 8.1000, 5000 rpm, 15 min, 4C). The pellet was resuspended in 20 mM Tris pH 7.5, 500 mM NaCl, 10 mM imidazole, 5 mM β-mercaptoethanol, 0.1 mg/mL 4-(2-aminoethyl) benzenesulfonyl fluoride hydrochloride (AEBSF), 1 μg/mL leupeptine, 50 μg/mL DNasel and 20 mM MgCl2. The cells were lysed using a French press (Constant Systems) at 20 kpsi and the cell debris was removed by centrifugation. The cell lysate was loaded on a Ni-sepharose FF HiLoad column (GE Healthcare), equilibrated in 20 mM Tris pH 7.5, 500 mM NaCl, 10 mM imidazole, 5 mM […]. The bound proteins were eluted using a linear gradient to 500 mM imidazole. Fractions containing the His-SUMO-Sushi1 protein were pooled and dialysed overnight to 20 mM Tris pH 7.5, 150 mM NaCl, while cleaving with 3C protease. The cleaved sample was loaded again on a Ni-sepharose FF HiLoad column, equilibrated in the same buffer. The FT, containing the Sushi1 protein, was concentrated and applied to a BioRad S100 16/60 size exclusion column, equilibrated in 50 mM KPi buffer pH 6.0, 50 mM NaCl.\n(§1) The Sushi-1 protein was dialysed overnight to PBS buffer and diluted to 30 μM in the same buffer. The peptides were resuspended in PBS at a stock concentration of 3 mM and diluted further in the same buffer to 300 μM. ITC experiments were performed on a Microcal ITC200 device. Titrations comprised 26×1.5 μL injections of peptide into protein, with 90 s intervals. An initial injection of ligand (0.5 μL) was made and discarded during data analysis. The data were fitted to a single binding site model using the Microcal LLC ITC200. Original software provided by the manufacturer."}, "[2]": {"biological_target": "T2, HEK293 cells expressing the ectodomain of GABABR1a comprising SD1 (Homo sapiens, UniProt Q9UBS5)", "T2 construct": "HEK293 were transfected with plasmids encoding the ectodomain of GABABR1a (as in Rice et al., 2019); expressed in transfected cells; host or cells: HEK293", "T2 sequence (Q9UBS5 20-591 limits assumed)": "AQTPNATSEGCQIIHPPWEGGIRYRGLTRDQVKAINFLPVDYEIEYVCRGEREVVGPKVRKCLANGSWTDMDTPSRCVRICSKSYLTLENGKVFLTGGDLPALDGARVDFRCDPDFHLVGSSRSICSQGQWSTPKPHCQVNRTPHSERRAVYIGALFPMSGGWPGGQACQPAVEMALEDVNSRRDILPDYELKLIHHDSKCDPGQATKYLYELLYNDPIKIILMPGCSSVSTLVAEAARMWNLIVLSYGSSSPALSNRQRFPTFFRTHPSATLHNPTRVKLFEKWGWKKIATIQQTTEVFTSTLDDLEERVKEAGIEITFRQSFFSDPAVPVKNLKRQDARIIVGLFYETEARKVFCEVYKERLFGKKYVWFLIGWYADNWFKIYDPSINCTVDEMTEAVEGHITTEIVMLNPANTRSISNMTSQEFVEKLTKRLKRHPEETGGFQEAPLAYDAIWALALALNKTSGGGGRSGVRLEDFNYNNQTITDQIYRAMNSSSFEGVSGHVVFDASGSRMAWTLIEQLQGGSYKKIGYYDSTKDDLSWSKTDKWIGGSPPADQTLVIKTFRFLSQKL", "experiment": "Flow-cytometry cell-based binding assay, competition with biotinylated 9-mer", "settings": "peptide at 100 μM, inhibition of biotin-9mer (10 μM) binding", "description": "HEK cells expressing GABABR1a-SD1 were incubated with peptides of the application and the binding of 9-mer in the presence of the peptides was measured. The 9-mer peptide is biotinylated and detected with a commercial antibody.\nNext, the top ranking compounds were tested in a cell-based binding assay. HEK293 cells were transformed to express the ectodomain of GABABR1a comprising SD1. In this cell-based assay, SD1 is expressed on the GABABR1a ectodomain and can adopt a more physiological conformation, compared to the purified SD1 protein used in the primary assay (FP assay).\nHEK293 were transfected with plasmids encoding the ectodomain of GABABR1a (as in Rice et al., 2019), carrying a His-tag at the N-terminal. After 24 h of expression, cells were harvested and adjusted to a concentration of 1×10^6 cells/mL in ice-cold 2% FBS/PBS. Incubation with each peptide (in dose-response curve) was carried out at 4° C. for 1 h, followed by incubation with the biotion-9mer (10 μM) peptide during 30 min. Detection antibodies recognizing either His protein or biotin were added for a period of 30 min. The assay plate containing the cells was loaded into the Attune NxT Cytometer, parameters were adjusted accordingly with the cell type and signal intensity. In each experiment, positive and negative control were added to the plate."}, "[3]": {"biological_target": "T3, GABABR1a-SD1 (SD1-FITC-9mer complex) (Homo sapiens, UniProt Q9UBS5)", "T3 construct": "The synthetic gene encoding for residues 26-96 of the Sushi1 protein was cloned into a pFloat-SUMO vector; His-SUMO (with 3C protease site) (N, cleaved yes); made in house; host or cells: E. coli BL21(DE3)", "T3 sequence (Q9UBS5 26-96, one chain of several)": "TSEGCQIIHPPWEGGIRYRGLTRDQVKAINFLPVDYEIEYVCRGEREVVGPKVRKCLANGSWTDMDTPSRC", "experiment": "Fluorescence polarization (FP) competition assay with FITC-9mer", "format": "binding", "settings": "peptide at 50 μM; inhibition of FITC-9mer binding to SD1", "description": "Intrigued by the surprising results of the 5-mer, it was decided to set up a medium- to high-throughput screen to optimize the 5-mer sequence. Several assays were tested to find a reproducible, robust and cost-effective assay that is also suitable for high-throughput screening. A fluorescence polarization (FP) assay was selected. FP measurements are well-known for receptor binding assays. The assay is based on the rotational movement of fluorescently labelled molecules in solution. […] The FP assay was optimized using the FITC labelled sAPP 9-mer (FIG. 1).\nTo screen for GABABR1a binders using unlabelled test compounds, the assay was turned into a competition assay using FITC-9mer. […] To validate this inhibitor assay, the IC50 values were determined of the 17-mer, 9-mer, 5-mer as well as those from 3 negative controls: 10-mer, scrambled 17-mer and a scrambled 9-mer (FIG. 2).\nTo determine if the peptides of this application were able to disrupt the SD1-9-mer complex, each peptide (in single point or dose-response curve) tested was incubate with SD1 protein for 1 h at RT. After this initially incubation, FITC-9mer was added to the previous mix and incubated during 2 h at RT. The signal intensity was measure in an appropriate plate reader using the following settings: Number of flashes per well: 200; Excitation: F482-16; Dichroic filter: FLP 504; Emission A F530-40; Gain A: 738, Gain B: 736. The assay was conducted in a 384-well plate."}, "[4]": {"test_system": "acute mouse hippocampal slices, CA3-CA1 Schaffer collateral (SC) synapses", "experiment": "Ex vivo fEPSP short-term facilitation in acute hippocampal slices (multi-electrode array)", "format": "cell-based", "description": "The effect of a selection of GABABR1a-SD1 binders on synaptic transmission was tested in an ex vivo experiment using acute mouse hippocampal slices comprising an intact circuit of CA3-CA1 Schaffer collateral (SC) synapses. In short, a burst of 5 stimuli at 20 Hz was applied to Schaffer collaterals to induce short-term facilitation, which inversely correlates with the probability of neurotransmitter release.\nRecordings were done in C57BL/6J mice (2 months old). For tissue preparation, mice were anesthetized with isoflurane and rapidly decapitated to prepare acute 300 μm-thick parasagittal brain slices on a Leica VT1200 vibratome. Slicing was performed in cold sucrose based cutting solution (ACSF) that consisted of (in mM): 87 NaCl, 2.5 KCl, 1.25 NaH2PO4, 10 glucose, 25 NaHCO3, 0.5 CaCl2, 7 MgCl2, 75 sucrose, 1 kynurenic acid, 5 ascorbic acid, 3 pyruvic acid (pH 7.4 with 5% CO2/95% O2). Slices were allowed to recover at 34° C. for 35 min, and subsequently maintained at room temperature for at least 30 min before use. Before recordings, slices were preincubated in artificial cerebrospinal fluid (ACSF, 119 mM NaCl, 2.5 mM KCl, 1 mM NaH2PO4, 11 mM glucose, 26 mM NaHCO3, 4 mM MgCl2 and 4 mM CaCl2, pH 7.4) containing peptide of interest or scrambled/control peptide (1 or 10 uM). Preincubation was performed in the multielectrode array recording chamber (60MEA200/30iR-Ti-gr, Multichannel Systems) for 60 min at 32° C., using custom-made local carbogenation rings (5% CO2/95% 02). Field excitatory post-synaptic potentials (fEPSPs) were recorded from Schaffer collateral-CA1 synapses by stimulating and recording from the appropriate (visually identified) electrodes (MEA-2100, Multichannel Systems). Input-output curves were recorded for each slice by applying single-stimuli ranging from 500 to 2750 mV with 250 mV increments. […] Train stimulations of 10, 20 and 50 Hz (5 stimuli per train) were recorded with 10 minutes intervals. Recordings were processed and analysed using Multi Channel Experimenter software (Multi Channel Systems)."}, "[5]": {"biological_target": "T4, Sushi domain 1 of the human GABA B1a receptor (human, UniProt Q9UBS5 26-96)", "T4 construct": "Purified recombinant protein from E. coli; also called SD1; GABABR1a-SD1", "T4 sequence (Q9UBS5 26-96 limits assumed)": "as the sequence (Q9UBS5 26-96, one chain of several) above", "experiment": "ITC", "description": "In the mutagenesis experiment of Example 1 we also included an 8-mer lacking position 9.\nas §1, with “ITC₂₀₀.” for “ITC200.”"}}, "note": "Where a SMILES comes first, the peptide text is derived from it. Where no end group is shown, it is not given here. [ ]: non-standard residue; d: D form. F72 = not defined here", "data": [{"molecule": "CC[C@H](C)[C@H](NC(=O)[C@H](N)CC(=O)O)C(=O)N[C@@H](Cc1c[nH]c2cc(Cl)ccc12)C(=O)N[C@@H](Cc1c[nH]c2ccccc12)C(=O)N[C@@H](CO)C(=O)O", "note": "[VIB-0068894]", "values": [{"measurement": "ITC Kd", "setting": "[1]", "value": "bound as good as the 17-mer"}, {"measurement": "inhibition at 100 µM", "setting": "[2]", "value": 84.2, "unit": "%"}, {"measurement": "inhibition at 50 µM", "setting": "[3]", "value": 96.8, "unit": "%"}]}, {"molecule": "CC[C@H](C)[C@H](NC(=O)[C@H](N)CC(=O)O)C(=O)N[C@@H](CCc1ccccc1)C(=O)N[C@@H](Cc1c[nH]c2ccccc12)C(=O)N[C@@H](CO)C(=O)O", "note": "[VIB-0068910]", "values": [{"measurement": "inhibition at 100 µM", "setting": "[2]", "value": 54.2, "unit": "%"}, {"measurement": "inhibition at 50 µM", "setting": "[3]", "value": 88.6, "unit": "%"}]}, {"molecule": "CC(C)[C@H](NC(=O)[C@H](CC(=O)O)NC(=O)[C@@H](CO)NC(=O)[C@@H](CC(=O)O)NC(=O)[C@H](N)CC(=O)O)C(=O)N[C@@H](Cc1c[nH]c2ccccc12)C(=O)N[C@@H](Cc1c[nH]c2ccccc12)C(=O)NCC(=O)NCC(=O)O", "note": "[VIB_P07, {D-ASP}{D-ASP}{D-SER}DVWWGG] (H-[dD][dD][dS]DVWWGG-OH; N-terminus and C-terminus assumed)", "values": [{"measurement": "Kd", "setting": "[1]", "value": 11, "unit": "µM"}]}, {"molecule": "CC(C)[C@H](NC(=O)[C@H](CC(=O)O)NC(=O)[C@H](CO)NC(=O)[C@@H](CC(=O)O)NC(=O)[C@@H](N)CC(=O)O)C(=O)N[C@@H](Cc1c[nH]c2ccccc12)C(=O)N[C@@H](Cc1c[nH]c2ccccc12)C(=O)NCC(=O)NCC(=O)O", "note": "[VIB_P09, D{D-ASP}SDVWWGG] (H-D[dD]SDVWWGG-OH; N-terminus and C-terminus assumed)", "values": [{"measurement": "Kd", "setting": "[1]", "value": 11, "unit": "µM"}]}, {"molecule": "DDSDVWWG [VIB_P20, DDSDVWWG]", "values": [{"measurement": "Kd", "setting": "[1]", "value": 1.95, "unit": "µM"}]}, {"molecule": "DDSDVWWGGADTDYADG [Peptide 17-mer, DDSDVWWGGADTDYADG]", "values": [{"measurement": "Ex vivo assay 1 μM (short-term facilitation)", "setting": "[4]; peptide 1 μM, vs scrambled control peptide, burst of 5 stimuli at 20 Hz, listed as sAPP 17-mer", "value": "increased the facilitation"}, {"measurement": "Increase in facilitation after preincubation with GABABR antagonist CGP-54626", "setting": "[4]; peptide 1 μM, CGP-54626 10 μM preincubation", "value": "blocked"}, {"measurement": "Ex vivo assay 10 μM (short-term facilitation)", "setting": "[4]; peptide 10 μM, vs scrambled negative control at 10 μM", "value": "statistically significant increase in short-term facilitation"}]}, {"molecule": "VIB-0068911: non-natural 5-mer d-I-F72-W-S; d = D-aspartate, F72 = (isoethylmethyl)benzene ([dD]I[F72]WS; not fully specified; printed as d-I-F72-W-S; reading uncertain)", "values": [{"measurement": "ITC Kd", "setting": "[1]", "value": "bound as good as the 17-mer"}]}, {"molecule": "ADSAVWWGG", "note": "[VIB_P05]", "values": [{"measurement": "binding result", "setting": "[5]", "value": "binds"}]}, {"molecule": "DDSDVAWGG", "note": "[VIB_P17]", "values": [{"measurement": "binding result", "setting": "[5]", "value": "binds"}]}, {"molecule": "DDSDVWAGG", "note": "[VIB_P18]", "values": [{"measurement": "binding result", "setting": "[5]", "value": "binds"}]}, {"molecule": "DDSDAWWGG", "note": "[VIB_P16]", "values": [{"measurement": "binding result", "setting": "[5]", "value": "binds"}]}]}
